Results: patent US8404679B2, “Pyrrolidine derivatives as NK2 receptor antagonists” (Hoffmann-La Roche Inc., priority 2008, dated 2013)

Target: T1, human NK2 receptor (Homo sapiens, UniProt P21452)
T1 construct: purchased Perkin Elmer biosignal Inc. 6110510
T1 sequence (P21452 1-398): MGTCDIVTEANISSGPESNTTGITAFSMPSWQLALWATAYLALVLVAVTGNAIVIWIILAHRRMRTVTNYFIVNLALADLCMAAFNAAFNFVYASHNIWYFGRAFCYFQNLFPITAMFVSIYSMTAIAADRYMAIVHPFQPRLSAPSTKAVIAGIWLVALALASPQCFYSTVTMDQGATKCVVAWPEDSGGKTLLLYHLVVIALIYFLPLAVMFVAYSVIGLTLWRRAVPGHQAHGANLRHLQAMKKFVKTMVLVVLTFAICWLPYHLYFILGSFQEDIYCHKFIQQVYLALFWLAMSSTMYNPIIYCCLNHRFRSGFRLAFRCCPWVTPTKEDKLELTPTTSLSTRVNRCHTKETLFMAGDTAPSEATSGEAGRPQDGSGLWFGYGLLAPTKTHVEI
Test: [3H]SR48968 competition binding assay
Settings: [3H]SR48968 displacement, membranes of CHO cells stably expressing recombinant human NK2 receptor; Ki from IC50 by Cheng-Prussoff
Description: [^3H]SR48968 Competition Binding Assay
hNK2 receptor binding experiment were performed using [^3H]SR48968 (Catalog No. TRK398, specific activity: 27.0 Ci/mmol, Amersham, GE Healthcare UK limited, Buckinghamshire, UK) and membrane isolated from CHO cells stably expressing recombinant human NK2 receptor (product No. 6110510, Perkin Elmer biosignal Inc., Shelton, Conn., USA). After thawing, the membrane homogenates were centrifuged at 48,000×g for 10 min at 4° C., the pellets were resuspended in the 50 mM Tris-HCl, 3 mM MnCl2, 4 μg/mL Chymostatin, 0.04% BSA binding buffer at pH 7.4 to a final assay concentration of 6.5 μg protein/well. For inhibition experiments, membranes were incubated with [^3H]SR48968 at a concentration equal to KD value of radioligand and 10 concentrations of the inhibitory compound (0.0003-10 μM) (in a total reaction volume of 500 μl) for 75 min at room temperature (RT). At the end of the incubation, membranes were filtered onto unitfilter (96-well white microplate with bonded GF/C filter preincubated 1 h in 0.3% polyethylenimine, Packard BioScience, Meriden, Conn.) with a Filtermate 196 harvester (Packard BioScience) and washed 4 times with ice-cold 50 mM Tris-HCl, pH 7.4 buffer. Nonspecific binding was measured in the presence of 10 μM 1-{2-[(R)-3-(3,4-dichloro-phenyl)-1-(3,4,5-trimethoxy-benzoyl)-pyrrolidin-3-yl]-ethyl}-4-phenyl-piperidine-4-carboxylic acid amide. The radioactivity on the filter was counted (5 min) on a Packard Top-count microplate scintillation counter with quenching correction after addition of 45 μl of microscint 40 (Canberra Packard S. A., Zürich, Switzerland) and shaking for 1 h. Inhibition curves were fitted according to the Hill equation: y=100/(1+(x/IC50)^nH), where nH=slope factor using Excel-fit 4 software (Microsoft). IC50 values were derived from the inhibition curve and the affinity constant (Ki) values were calculated using the Cheng-Prussoff equation Ki=IC50/(1+[L]/KD) where [L] was the concentration of radioligand and KD was its dissociation constant at the receptor, derived from the saturation isotherm.

`COc1ccc(C(=O)N(C)[C@@H]2CN(C(=O)c3ccc(C(F)(F)F)cc3)C[C@H]2c2ccc(Cl)c(Cl)c2)cc1C(F)(F)F` (racemic) [Example 50, rac-N-[(3S,4R)-4-(3,4-Dichloro-phenyl)-1-(4-trifluoromethyl-benzoyl)-pyrrolidin-3-yl]-4-methoxy-N-methyl-3-trifluoromethyl-benzamide] showed a Ki of 6.3 nM.

In the case of `COc1ccc(C(=O)N(C)[C@@H]2CN(C(=O)c3ccncc3)C[C@H]2c2ccc(Cl)c(Cl)c2)cc1C(F)(F)F` (racemic) [Example 51, rac-N-[(3S,4R)-4-(3,4-Dichloro-phenyl)-1-(pyridine-4-carbonyl)-pyrrolidin-3-yl]-4-methoxy-N-methyl-3-trifluoromethyl-benzamide], the Ki is reported as 3 nM.

In the case of `COc1ccc(C(=O)N(C)[C@@H]2CN(C(=O)c3cc(Cl)nc(Cl)c3)C[C@H]2c2ccc(Cl)c(Cl)c2)cc1C(F)(F)F` (racemic) [Example 52, rac-N-[(3S,4R)-4-(3,4-Dichloro-phenyl)-1-(2,6-dichloro-pyridine-4-carbonyl)-pyrrolidin-3-yl]-4-methoxy-N-methyl-3-trifluoromethyl-benzamide], the Ki is reported as 3.72 nM.

With `COc1ccc(C(=O)N(C)[C@@H]2CN(C(=O)c3ccc(OC(F)(F)F)cc3)C[C@H]2c2ccc(Cl)c(Cl)c2)cc1C(F)(F)F` (racemic) [Example 53, rac-N-[(3S,4R)-4-(3,4-Dichloro-phenyl)-1-(4-trifluoromethoxy-benzoyl)-pyrrolidin-3-yl]-4-methoxy-N-methyl-3-trifluoromethyl-benzamide] the Ki was 2.91 nM.

`COc1ccc(C(=O)N(C)[C@@H]2CN(C(=O)c3cccc(S(C)(=O)=O)c3)C[C@H]2c2ccc(Cl)c(Cl)c2)cc1C(F)(F)F` (racemic) [Example 54, rac-N-[(3S,4R)-4-(3,4-Dichloro-phenyl)-1-(3-methanesulfonyl-benzoyl)-pyrrolidin-3-yl]-4-methoxy-N-methyl-3-trifluoromethyl-benzamide] gave a Ki of 3.81 nM.

For `COc1ccc(C(=O)N2C[C@@H](N(C)C(=O)c3ccc(OC)c(C(F)(F)F)c3)[C@H](c3ccc(Cl)c(Cl)c3)C2)cc1C` (racemic) [Example 55, rac-N-[(3S,4R)-4-(3,4-Dichloro-phenyl)-1-(4-methoxy-3-methyl-benzoyl)-pyrrolidin-3-yl]-4-methoxy-N-methyl-3-trifluoromethyl-benzamide], the Ki was 2.06 nM.

For `COc1ccc(C(=O)N(C)[C@@H]2CN(C(=O)c3cc(C)cc(C)c3)C[C@H]2c2ccc(Cl)c(Cl)c2)cc1C(F)(F)F` (racemic) [Example 56, rac-N-[(3S,4R)-4-(3,4-Dichloro-phenyl)-1-(3,5-dimethyl-benzoyl)-pyrrolidin-3-yl]-4-methoxy-N-methyl-3-trifluoromethyl-benzamide], the Ki was 9.52 nM.

Work on `COc1ccc(C(=O)N(C)[C@@H]2CN(C(=O)c3ccc(C(C)=O)cc3)C[C@H]2c2ccc(Cl)c(Cl)c2)cc1C(F)(F)F` (racemic) [Example 57, rac-N-[(3S,4R)-1-(4-Acetyl-benzoyl)-4-(3,4-dichloro-phenyl)-pyrrolidin-3-yl]-4-methoxy-N-methyl-3-trifluoromethyl-benzamide] yielded a Ki of 1.55 nM.

With `COc1ccc(C(=O)N(C)[C@@H]2CN(C(=O)c3cc(C)n(C)n3)C[C@H]2c2ccc(Cl)c(Cl)c2)cc1C(F)(F)F` (racemic) [Example 58, rac-N-[(3S,4R)-4-(3,4-Dichloro-phenyl)-1-(1,5-dimethyl-1H-pyrazole-3-carbonyl)-pyrrolidin-3-yl]-4-methoxy-N-methyl-3-trifluoromethyl-benzamide] the Ki was 8.52 nM.

`CN(C(=O)c1cc(Cl)ccn1)[C@@H]1CN(C(=O)c2ccc(C#N)cc2)C[C@H]1c1ccc(Cl)c(Cl)c1` (racemic) [Example 59, rac-4-Chloro-pyridine-2-carboxylic acid [(3S,4R)-1-(4-cyano-benzoyl)-4-(3,4-dichloro-phenyl)-pyrrolidin-3-yl]-methyl-amide] gave a Ki of 12.8 nM.

`Cc1ccnc(C(=O)N(C)[C@@H]2CN(C(=O)c3ccc(C#N)cc3)C[C@H]2c2ccc(Cl)c(Cl)c2)c1` (racemic) [Example 63, rac-4-Methyl-pyridine-2-carboxylic acid [(3S,4R)-1-(4-cyano-benzoyl)-4-(3,4-dichloro-phenyl)-pyrrolidin-3-yl]-methyl-amide] was tested, and the Ki was 2.64 nM.

`CCOCc1ccc(C(=O)N(C)[C@@H]2CN(C(=O)c3ccc(C#N)cc3)C[C@H]2c2ccc(Cl)c(Cl)c2)nc1` (racemic) [Example 65, rac-5-Ethoxymethyl-pyridine-2-carboxylic acid [(3S,4R)-1-(4-cyano-benzoyl)-4-(3,4-dichloro-phenyl)-pyrrolidin-3-yl]-methyl-amide] gave a Ki of 30.2 nM.

For `Cc1cc(Cl)cc(C(=O)N(C)[C@@H]2CN(C(=O)c3ccc(C#N)cc3)C[C@H]2c2ccc(Cl)c(Cl)c2)n1` (racemic) [Example 66, rac-4-Chloro-6-methyl-pyridine-2-carboxylic acid [(3S,4R)-1-(4-cyano-benzoyl)-4-(3,4-dichloro-phenyl)-pyrrolidin-3-yl]-methyl-amide], the Ki was 49.8 nM.

Work on `COc1cc(C(=O)N(C)[C@@H]2CN(C(=O)c3ccc(C#N)cc3)C[C@H]2c2ccc(Cl)c(Cl)c2)nc2ccccc12` (racemic) [Example 67, rac-4-Methoxy-quinoline-2-carboxylic acid [(3S,4R)-1-(4-cyano-benzoyl)-4-(3,4-dichloro-phenyl)-pyrrolidin-3-yl]-methyl-amide] yielded a Ki of 52.9 nM.

With `CCc1cc(Cl)cc(C(=O)N(C)[C@@H]2CN(C(=O)c3ccc(C#N)cc3)C[C@H]2c2ccc(Cl)c(Cl)c2)n1` (racemic) [Example 68, rac-4-Chloro-6-ethyl-pyridine-2-carboxylic acid [(3S,4R)-1-(4-cyano-benzoyl)-4-(3,4-dichloro-phenyl)-pyrrolidin-3-yl]-methyl-amide] the Ki was 74.3 nM.

For `CN(C(=O)c1ccc(Cl)cn1)[C@@H]1CN(C(=O)c2ccc(C#N)cc2)C[C@H]1c1ccc(Cl)c(Cl)c1` (racemic) [Example 69, rac-5-Chloro-pyridine-2-carboxylic acid [(3S,4R)-1-(4-cyano-benzoyl)-4-(3,4-dichloro-phenyl)-pyrrolidin-3-yl]-methyl-amide], the Ki was 23.3 nM.

`CN(C(=O)c1ccc(C#N)cn1)[C@@H]1CN(C(=O)c2ccc(C#N)cc2)C[C@H]1c1ccc(Cl)c(Cl)c1` (racemic) [Example 70, rac-5-Cyano-pyridine-2-carboxylic acid [(3S,4R)-1-(4-cyano-benzoyl)-4-(3,4-dichloro-phenyl)-pyrrolidin-3-yl]-methyl-amide] showed a Ki of 39.7 nM.

For `COc1nc(C(=O)N(C)[C@@H]2CN(C(=O)c3ccc(C#N)cc3)C[C@H]2c2ccc(Cl)c(Cl)c2)ccc1C#N` (racemic) [Example 71, rac-5-Cyano-6-methoxy-pyridine-2-carboxylic acid [(3S,4R)-1-(4-cyano-benzoyl)-4-(3,4-dichloro-phenyl)-pyrrolidin-3-yl]-methyl-amide], the Ki was 34.4 nM.

Compound `CN(C(=O)c1ccc(Cl)c(C(F)(F)F)c1)[C@@H]1CN(C(=O)c2ccc(C#N)cc2)C[C@H]1c1ccc(Cl)c(Cl)c1` (racemic) [Example 72, rac-4-Chloro-N-[(3S,4R)-1-(4-cyano-benzoyl)-4-(3,4-dichloro-phenyl)-pyrrolidin-3-yl]-N-methyl-3-trifluoromethyl-benzamide] has a Ki of 0.58 nM.

`COc1ccc(C(=O)N(C)[C@@H]2CN(C(=O)c3ccc(C#N)cc3)C[C@H]2c2ccc(Cl)c(Cl)c2)cc1F` (racemic) [Example 73, rac-N-[(3S,4R)-1-(4-Cyano-benzoyl)-4-(3,4-dichloro-phenyl)-pyrrolidin-3-yl]-3-fluoro-4-methoxy-N-methyl-benzamide] gave a Ki of 12.4 nM.

For `COc1ccc(C(=O)N(C)[C@@H]2CN(C(=O)c3ccc(C#N)cc3)C[C@H]2c2ccc(Cl)c(Cl)c2)cc1C(C)(C)C` (racemic) [Example 74, rac-3-tert-Butyl-N-[(3S,4R)-1-(4-cyano-benzoyl)-4-(3,4-dichloro-phenyl)-pyrrolidin-3-yl]-4-methoxy-N-methyl-benzamide], the Ki was 1.3 nM.

For `CN(C(=O)c1ccc(OCC2CC2)cc1)[C@@H]1CN(C(=O)c2ccc(C#N)cc2)C[C@H]1c1ccc(Cl)c(Cl)c1` (racemic) [Example 75, rac-N-[(3S,4R)-1-(4-Cyano-benzoyl)-4-(3,4-dichloro-phenyl)-pyrrolidin-3-yl]-4-cyclopropylmethoxy-N-methyl-benzamide], the Ki was 23 nM.
